Test results as given in US20050164945A1, “Endotheliase-1 ligands” (priority 2003, published 2005).

Experiments:
[1] = tested on: Trypsin; conditions: read-out: Trypsin estimated IC50, 30 minute preincubation with 100 nM Kunitz domain
Protocol: (§1) Cloning into this vector placed a His-tag at the C-terminus of the protein that was used to facilitate purification.
(§2) For protein production, E. coli containing the expression vector were grown in media containing ampicillin and 2% glucose to an OD600 of 0.5. At this time the cells were spun down and the media removed. The cell pellet was then resuspended in fresh media containing ampicillin and 1 mM IPTG to induce expression of the protein. The cells were allowed to grow with shaking overnight at 30° C. before harvesting by centrifugation. Periplasmic extracts were then prepared and the MBP-Kunitz fusion purified using immobilized metal ion chromatography.

[2] = molecular target: MTSP-1 (Homo sapiens, UniProt Q9Y5Y6); conditions: 30 minute preincubation with 100 nM Kunitz domain
Sequence of MTSP-1 (Q9Y5Y6 whole entry, species assumed, the tested form may be a part): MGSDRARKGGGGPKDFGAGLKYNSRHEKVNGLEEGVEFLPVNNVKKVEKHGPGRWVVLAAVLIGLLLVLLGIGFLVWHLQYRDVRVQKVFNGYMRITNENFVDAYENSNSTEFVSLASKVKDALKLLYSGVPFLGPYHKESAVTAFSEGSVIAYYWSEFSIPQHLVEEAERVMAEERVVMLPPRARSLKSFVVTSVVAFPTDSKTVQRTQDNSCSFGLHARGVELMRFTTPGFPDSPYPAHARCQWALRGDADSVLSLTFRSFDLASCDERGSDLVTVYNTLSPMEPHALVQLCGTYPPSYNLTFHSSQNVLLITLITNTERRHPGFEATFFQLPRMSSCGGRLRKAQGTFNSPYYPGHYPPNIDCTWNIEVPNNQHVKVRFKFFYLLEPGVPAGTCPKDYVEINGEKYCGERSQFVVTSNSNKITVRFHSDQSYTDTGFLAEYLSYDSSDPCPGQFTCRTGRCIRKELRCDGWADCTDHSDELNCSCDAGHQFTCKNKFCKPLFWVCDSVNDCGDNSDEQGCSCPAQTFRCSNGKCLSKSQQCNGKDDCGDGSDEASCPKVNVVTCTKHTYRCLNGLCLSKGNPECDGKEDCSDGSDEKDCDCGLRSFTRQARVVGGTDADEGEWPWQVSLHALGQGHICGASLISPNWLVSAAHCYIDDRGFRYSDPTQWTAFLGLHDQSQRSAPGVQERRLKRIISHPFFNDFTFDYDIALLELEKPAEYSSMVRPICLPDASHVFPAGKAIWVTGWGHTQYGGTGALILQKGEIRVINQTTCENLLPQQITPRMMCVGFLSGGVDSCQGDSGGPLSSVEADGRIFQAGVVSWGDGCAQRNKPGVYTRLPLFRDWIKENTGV
Protocol: as §1, §2

[3] = tested on: ET-2; conditions: for ET-2 estimated IC50: 30 minute preincubation with 100 nM Kunitz domain; for IC50: read-out: ET-2 estimated IC50, 30 minute preincubation with 100 nM Kunitz domain
Sequence of ET-2 (Q9BYE2 326-559 limits assumed): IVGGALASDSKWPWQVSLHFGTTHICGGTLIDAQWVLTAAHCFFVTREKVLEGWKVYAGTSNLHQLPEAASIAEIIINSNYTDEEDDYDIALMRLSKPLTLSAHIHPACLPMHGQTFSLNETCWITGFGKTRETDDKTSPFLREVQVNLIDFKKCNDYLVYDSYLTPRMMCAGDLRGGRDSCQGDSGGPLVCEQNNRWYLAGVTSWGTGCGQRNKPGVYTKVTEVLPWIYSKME
Protocol: as §1, §2

[4] = molecular target: fXa (Homo sapiens, UniProt P00742); conditions: 30 minute preincubation with 100 nM Kunitz domain
Sequence of fXa (P00742 235-488 limits assumed): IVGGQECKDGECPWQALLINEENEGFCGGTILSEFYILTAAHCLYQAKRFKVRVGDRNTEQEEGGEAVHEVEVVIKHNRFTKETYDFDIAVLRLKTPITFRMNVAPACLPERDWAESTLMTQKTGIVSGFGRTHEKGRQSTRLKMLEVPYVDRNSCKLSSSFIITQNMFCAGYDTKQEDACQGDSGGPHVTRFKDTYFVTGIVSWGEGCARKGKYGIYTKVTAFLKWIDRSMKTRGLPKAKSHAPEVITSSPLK
Sequence of fXa (P00742 41-179 partner limits assumed): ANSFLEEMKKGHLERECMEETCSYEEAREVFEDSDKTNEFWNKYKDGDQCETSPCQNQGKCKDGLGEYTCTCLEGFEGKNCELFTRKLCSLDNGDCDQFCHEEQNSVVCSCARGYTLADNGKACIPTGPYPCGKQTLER
Protocol: as §1, §2

[5] = molecular target: TnIV (Homo sapiens, UniProt P35030); conditions: 30 minute preincubation with 100 nM Kunitz domain
Sequence of TnIV (P35030 whole entry, the tested form may be a part): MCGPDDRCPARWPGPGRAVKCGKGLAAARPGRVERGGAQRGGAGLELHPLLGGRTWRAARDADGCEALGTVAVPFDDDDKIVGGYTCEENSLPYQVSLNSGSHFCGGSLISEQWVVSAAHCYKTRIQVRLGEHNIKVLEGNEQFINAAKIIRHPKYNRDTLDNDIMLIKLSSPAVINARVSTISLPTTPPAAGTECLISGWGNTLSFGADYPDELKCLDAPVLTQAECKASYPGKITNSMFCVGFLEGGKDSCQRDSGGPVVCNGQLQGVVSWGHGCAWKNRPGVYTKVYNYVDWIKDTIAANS
Protocol: as §1, §2

Sequence	IC50 [1]	MTSP-1 estimated IC50 [2]	ET-2 estimated IC50 [3]	fXa estimated IC50 [4]	IC50 [3]	TnIV estimated IC50 [5]
MAAEMHSFCAFKADKGECRASVQRFFFNIFTRQCEEFNYGGCGGNQNRFESLEECKKMCTRDSASSASGDFD [MBP-D12]	~0.03 µM	IA (IA = <5% inhibition @ 100 nM)	IA (IA = <5% inhibition @ 100 nM)	–	–	–
MAAEMHSFCAFKADKGFCRAMDIRFFFNIFTRQCEEFIYGGCGGNQNRFESLEECKKMCTRDSASSASGDFD [MBP-1B2]	< 0.01 µM	IA (IA = <5% inhibition @ 100 nM)	IA (IA = <5% inhibition @ 100 nM)	IA (IA = <5% inhibition @ 100 nM)	–	–
MAAEMHSFCAFKADKGTCRGDFPRFFFNIFTRQCEEFHYGGCGGNQNRFESLEECKKMCTRDSASSASGDFD [MBP-1E9]	≥ 1 µM	IA (IA = <5% inhibition @ 100 nM)	IA (IA = <5% inhibition @ 100 nM)	IA (IA = <5% inhibition @ 100 nM)	–	–
MAAEMHSFCAFKADPGPCRAIMTRFFFNIFTRQCEEFRYGGCLGNQNRFESLEECKKMCTRDSASSASGDFD [MBP-1G11]	< 0.01 µM	IA (IA = <5% inhibition @ 100 nM)	–	–	≥ 1 µM	–
MAAEMHSFCAFKADPGPCRAMFNRFFFNIFTRQCEEFNYGGCSGNQNRFESLEECKKMCTRDSASSASGDFD [MBP-1E6]	< 0.01 µM	–	–	IA (IA = <5% inhibition @ 100 nM)	~0.4 µM	–
MAAEMHSFCAFKADPGQCRAYYRRFFFNIFTRQCEEFVYGGCMGNQNRFESLEECKKMCTRDSASSASGDFD [MBP-1G2]	< 0.01 µM	IA (IA = <5% inhibition @ 100 nM)	–	–	~0.3 µM	–
MAAEMHSFCAFKADQGPCRAAISRFFFNIFTRQCEEFVYGGCEGNQNRFESLEECKKMCTRDSASSASGDFD [MBP-1D9]	~0.05 µM	IA (IA = <5% inhibition @ 100 nM)	–	IA (IA = <5% inhibition @ 100 nM)	≥ 1 µM	–
MAAEMHSFCAFKADQGPCRASVHRFFFNIFTRQCEEFFYGGCLGNQNRFESLEECKKMCTRDSASSASGDFD [MBP-1F8]	< 0.01 µM	IA (IA = <5% inhibition @ 100 nM)	IA (IA = <5% inhibition @ 100 nM)	IA (IA = <5% inhibition @ 100 nM)	–	IA (IA = <5% inhibition @ 100 nM)
MAAEMHSFCAFKADRGPCRADFHRFFFNIFTRQCEEFHYGGCGGNQNRFESLEECKKMCTRDSASSASGDFD [MBP-1A10]	< 0.01 µM	–	IA (IA = <5% inhibition @ 100 nM)	IA (IA = <5% inhibition @ 100 nM)	–	–
MAAEMHSFCAFKADRGPCRAYFDRFFFNIFTRQGEEFIYGGCMGNQNRFESLEECKKMCTRDSASSASGDFD [MBP-1G8]	~0.01 µM	IA (IA = <5% inhibition @ 100 nM)	IA (IA = <5% inhibition @ 100 nM)	–	–	–
MAAEMHSFCAFKADTGPCRADIKRFFFNIFTRQCEEFRYGGCMGNQNRFESLEECKKMCTRDSASSASGDFD [MBP-1G9]	~0.06 µM	–	IA (IA = <5% inhibition @ 100 nM)	IA (IA = <5% inhibition @ 100 nM)	–	IA (IA = <5% inhibition @ 100 nM)
MAAEMHSFCAFKADTGTCRAAMVRFFFNIFTRQCEEFTYGGCEGNQNRFESLEECKKMCTRDSASSASGDFD [MBP-1H8]	~0.03 µM	IA (IA = <5% inhibition @ 100 nM)	IA (IA = <5% inhibition @ 100 nM)	IA (IA = <5% inhibition @ 100 nM)	–	IA (IA = <5% inhibition @ 100 nM)
